The first assay relates to 48-Hours PCA (passive cutaneous anaphylaxis). Nature of the assay: Test Example 3: Anti-passive cutaneous anaphylaxis (PCA) activity in rats, 48-Hours PCA (Ic compounds). The format is in vivo, rat (Wistar strain male). Conditions: 30 mg/kg, P.O., 1 hour before the elicitation. On the procedure:
(§1) Anti-passive cutaneous anaphylaxis (PCA) activity in rats (Materials and Method)
(§2) Wistar strain male rats (6 weeks old) were purchased from Shizuoka Experimental Animal Agricultural Cooperative (Japan), habituated to a breeding environment for 1 week before using for the experiment.
(§3) (2) Preparation of antiserum
(§4) Preparation of antiserum was carried out according to the method described in J. Immunol. 106, 1002-1011 (1971).
(§5) Thus, Ascaris suum extract was dinitrophenylated (DNP-As) and infused subcutaneously together with dead Bordetella pertussis at four sites on the foot-pad of the Wistar strain male rats. After 5 days, the rats were boostered with DNP-As (1 mg) at the dorsal muscle for additional sensitization. After 3 days, blood samples were collected and serum was separated which was used as anti DNP-As antiserum. The titer of the antiserum was measured by rats 48-hours PCA and found to be 1:200.
Rats were sensitized with 35 times dilution of anti DNA-As antiserum administered at two sites in the pre-clipped right dorsal skin. After 48 hours, DNP-As (500 μg in 0.5% Evans blue-physiological saline (1 ml) was administered into caudal vein to elicit the reaction. Then, 30 minutes later, the animals were decapitated, the dorsal skin was peeled, two sensitized areas as well as one control area were cut off and analyzed for Evans blue exudation which was used as an indivative of the reaction according to the method disclosed in Microbiol. Immunol. 22, 89-101 (1978). Thus, cut skins were treated with […] incubated at 37° C. for 16 hours to dissolve the skin tissue. A mixed solution (9 ml) of 0.6 N-phosphoric acid-acetone (5: 13) was added and the mixture was centrifuged (300 r.p.m.) for 15 minutes. The supernatant was assayed for absorption at 620 nm and the exudation of Evans blue was determined. Test compounds (I) of the present invention were administered perorally as a suspension in 0.5% tragacanth 1 hour before the elicitation.
Take `COc1ccc(-c2nc(C)c(C(=O)Nc3nnn[nH]3)s2)cc1` [Ic-6, 2-(4-Methoxyphenyl)-4-methyl-N-(1H-tetrazole-5-yl)-5-thiazolecarboxamide]: the “Inhibition (%)” value is on record as 56%.
On to `COc1ccc(-c2nc(C)c(NC(=O)c3nnn[nH]3)s2)cc1` [Ic-14, N-(2-(4-Methoxyphenyl)-4-methyl-5-thiazolyl)-1H-tetrazole-5-carboxamide], for which the “Inhibition (%)” value is given as 50%.
Regarding `Cc1ccc(-c2nc(C)c(C(=O)Nc3nnn[nH]3)s2)cc1` [Ic-5, 4-methyl-2-(4-methylphenyl)-N-(1H-tetrazole-5-yl)-5-thiazolecarboxamide], the “Inhibition (%)” value was determined as 49%.
Turning to `Cc1ccc(-c2nc(C)c(NC(=O)c3nnn[nH]3)s2)cc1` [Ic-13, N-(4-methyl-2-(4-methylphenyl)-5-thiazolyl)-1H-tetrazole-5-carboxamide], the “Inhibition (%)” value is listed as 52%.

The assay is the same for the next values; noted with them: 50 mg/kg, P.O., 1 hour before the elicitation.
Turning to `COc1ccc(/C=C/C(=O)Nc2ccccc2C(=O)O)cc1OC` [Tranilast, reference compound], the “Inhibition (%)” value was 0%.

The next assay has the same test system. Nature of the assay: Test Example 2: Anti-passive cutaneous anaphylaxis (PCA) activity in rats, 48-Hours PCA (Ib compounds). The format is in vivo, rat (Wistar strain male). The following applies: Rattus norvegicus, po, 20 mg/kg, P.O., 1 hour before the elicitation. The procedure:
as §1, §2, §3, §4, §5
(§6) Rats were sensitized with 35 times dilution of anti DNA-As antiserum administered at two sites in the pre-clipped right dorsal skin. After 48 hours, DNP-As (500 μg in 0.5% Evans blue-physiological saline (1 ml) was administered into caudal vein to elicit the reaction. Then, 30 minutes later, the animals were decapitated, the dorsal skin was peeled, two sensitized areas as well as one control area were cut off and analyzed for Evans blue exudation which was used as an indivative of the reaction according to the method disclosed in Microbiol. Immunol. 22, 89-101 (1978). Thus, cut skins were treated with 1N-KOH (1 ml) and incubated at 37° C. for 16 hours to dissolve the skin tissue. A mixed solution (9 ml) of 0.6N-phosphoric acid-acetone (5: 13) was added and the mixture was centrifuged (300 r.p.m.) for 15 minutes. The supernatant was assayed for absorption at 620 nm and the exudation of Evans blue was determined. Test compounds (I) of the present invention were administered perorally as a suspension in 0.5% tragacanth 1 hour before the elicitation.
For the molecule `Cc1sc(NC(=O)c2nnn[nH]2)nc1-c1ccccc1` [Ib-12, N-(5-methyl-4-phenyl-2-thiazolyl)-1H-tetrazole-5-carboxamide], testing at 20 mg/kg gave an inhibition in vivo of 51%.
With `COc1ccc(-c2csc(NC(=O)c3nnn[nH]3)n2)cc1` [Ib-4], the inhibition in vivo at 20 mg/kg came out at 92%.
`O=C(Nc1nc(-c2ccc(Cl)cc2)cs1)c1nnn[nH]1` [Ib-7, N-(4-(4-chlorophenyl)-2-thiazolyl)-1H-tetrazole-5-carboxamide]: the inhibition in vivo at 20 mg/kg was determined as 70%.
Molecule `O=C(Nc1nc(-c2ccccc2)cs1)c1nnn[nH]1` [Ib-1, N-(4-phenyl-2-thiazolyl)-1H-tetrazole-5-carboxamide] came in with an inhibition in vivo at 20 mg/kg of 66%.
On to `Cc1ccc(-c2csc(NC(=O)c3nnn[nH]3)n2)cc1` [Ib-5, N-(4-(4-Methylphenyl)-2-thiazolyl)-1H-tetrazole-5-carboxamide], for which the inhibition in vivo at 20 mg/kg was found to be 89%.

The same assay, now with this note: Rattus norvegicus, po, 30 mg/kg, P.O., 1 hour before the elicitation.
Take `Cc1ccc(-c2csc(C(=O)Nc3nnn[nH]3)n2)cc1` [Ib-13, 4-(4-Methylphenyl)-N-(1H-tetrazole-5-yl)-2-thiazolecarboxamide]: at 30 mg/kg the inhibition in vivo was 60%.
`COc1ccc(-c2csc(C(=O)Nc3nnn[nH]3)n2)cc1` [Ib-14, 4-(4-methoxyphenyl)-N (1H-tetrazole-5-yl)-2-thiazolecarboxamide] gave an inhibition in vivo at 30 mg/kg of 50%.

The assay is the same for the next values; noted with them: Rattus norvegicus, po, 50 mg/kg, P.O., 1 hour before the elicitation.
On to `COc1ccc(/C=C/C(=O)Nc2ccccc2C(=O)O)cc1OC` [Tranilast, reference compound], for which the inhibition in vivo at 50 mg/kg turned out to be 0%.

For the next assay the test system is unchanged. Nature of the assay: Test Example 1: Anti-passive cutaneous anaphylaxis (PCA) activity in rats, 48-Hours PCA (Ia compounds). Conditions: Rattus norvegicus, po, 15 mg/kg, perorally, 1 hour before the elicitation. The assay is classed as in vivo, rat (Wistar strain male). On the procedure: as §1, §2, §3, §4, §5
as §6, with “μg in 0.5 % Evans blue-physiological” for “μg in 0.5% Evans blue-physiological”
`CC(C)c1ccc(-c2nc(NC(=O)c3nnn[nH]3)cs2)cc1` [Ia-16, N-(2-(4-(1-methylethyl)phenyl)-4-thiazolyl) 1H-tetrazole-5-carboxamide] displayed an inhibition in vivo at 15 mg/kg of 46%.
`O=C(Nc1csc(-c2ccc3ccccc3n2)n1)c1nnn[nH]1` [Ia-26, N-(2-(2-quinolyl)-4-thiazolyl)-1H-tetrazole-5-carboxamide] gave an inhibition in vivo at 15 mg/kg of 42%.
Same read-out and setting: the result for `O=C(Nc1csc(-c2cccnc2)n1)c1nnn[nH]1` [Ia-23, N-(2-(3-Pyridyl)-4-thiazolyl)-1H-tetrazole-5-carboxamide] reads 40%; that for `Cc1cccc(-c2nc(NC(=O)c3nnn[nH]3)cs2)c1` [Ia-4, N-(2-(3-methylphenyl)-4-thiazolyl)-1H-tetrazole-5-carboxamide], 39%.
On the same count and under the same terms, then `CC(C)(C)c1ccc(-c2nc(NC(=O)c3nnn[nH]3)cs2)cc1` [Ia-17, N-(2-(4-(1,1-dimethylethyl)phenyl)-4-thiazolyl)-1H-tetrazole-5-carboxamide], with 47%; and `COc1ccc(-c2nc(NC(=O)c3nnn[nH]3)cs2)cc1` [Ia-8], with 80%; and `Cc1ccccc1-c1nc(NC(=O)c2nnn[nH]2)cs1` [Ia-3, N-(2-(2-methylphenyl)-4-thiazolyl)-1H-tetrazole-5-carboxamide], with 78%.
`Cc1nc(NC(=O)c2nnn[nH]2)cs1` [Ia-1, N-(2-Methyl-4-thiazolyl)-1H-tetrazole-5-carboxamide] returned an inhibition in vivo at 15 mg/kg of 60%.
Take `O=C(Nc1csc(-c2cccs2)n1)c1nnn[nH]1` [Ia-25, N-(2-(2-thienyl)-4-thiazolyl)-1H-tetrazole-5-carboxamide]: the inhibition in vivo at 15 mg/kg came out at 43%.
Turning to `O=C(Nc1csc(-c2ccc(Cl)cc2)n1)c1nnn[nH]1` [Ia-15, N-(2-(4-chlorophenyl)-4-thiazolyl)-1H-tetrazole-5-carboxamide], the inhibition in vivo at 15 mg/kg came out at 50%.

The assay is the same for the next values; noted with them: Rattus norvegicus, po, 25 mg/kg, perorally, 1 hour before the elicitation.
Regarding `Cc1ccc(-c2nc(NC(=O)c3nnn[nH]3)cs2)cc1` [Ia-5], the inhibition in vivo at 25 mg/kg amounted to 90%.
As for `Cc1ccc(-c2nc(NC(=O)c3nnn[nH]3)c(C)s2)cc1` [Ia-19, N-(2-(4-methylphenyl)-5-methyl-4-thiazolyl)-1H-tetrazole-5-carboxamide], the inhibition in vivo at 25 mg/kg was 61%.

The assay is the same for the next values; noted with them: Rattus norvegicus, po, 50 mg/kg, 1 hour before the elicitation.
For the molecule `COc1ccc(/C=C/C(=O)Nc2ccccc2C(=O)O)cc1OC` [Tranilast, reference compound], testing at 50 mg/kg gave an inhibition in vivo of 0%.

For orientation: inhibition in vivo means the change of the read-out against control, counted positive when it falls. A higher inhibition in vivo goes with a strong effect.
